Data taken from publication PMC2708596 (Toxicological Sciences, 2009).
Where two headings read alike, the source gives them in different places.

How the values were obtained:
[1] = Male rat, Liver; estragole metabolites; ref Punt et al. (2008); cited from earlier work
[2] = Male rat, Lung, ref Punt et al. (2008), cited from earlier work
[3] = Male rat, Kidney, ref Punt et al. (2008), cited from earlier work
[4] = PBBK model for estragole in human; conditions: 0.001 mg/kg bw, after 8 h, compared with Sangster et al., 1987
[5] = Phase I metabolism of estragole by human liver microsomes; format: in vitro ADME
[6] = rats, 0.05 mg/kg bw; ref Anthony et al., 1987; cited from earlier work
[7] = humans, ref Sangster et al., 1987, cited from earlier work

SMILES | Catalytic efficiency [1] | Scaled Vmax (app) [1] | Scaled Vmax (app) ([2]; microsomal protein yield 20 mg/g) | Catalytic efficiency [2] | Km ([2]; read-out: Km (app)) | Scaled Vmax (app) ([3]; microsomal protein yield 7 mg/g) | Catalytic efficiency [3] | Km ([3]; read-out: Km (app)) | predicted formation compared with the reported in vivo level [4] | Scaled Vmax (app) ([5]; Human, Liver, estragole metabolites, microsomal protein yield 32 mg/g) | Catalytic efficiency ([5]; Human, Liver, estragole metabolites, scaled Vmax (app)/Km(app)) | In vitro catalytic efficiency ([5]; Vmax (app)/Km(app) × 1000 μl/ml) | oral dose accounted for by O-demethylation [6] | dose excreted as 14CO2 (level of O-demethylation) ([7]; 0.001 mg/kg bw, after 8 h) | radioactivity excreted in the urine ([7]; 0.001 mg/kg bw, after 8 h) | radioactivity excreted in the urine ([7]; 0.001 mg/kg bw, after 24 h) | radioactivity excreted in the urine ([7]; 0.001 mg/kg bw, after 48 h) | radioactivity not recovered ([7]; within 48 h)
C=CCc1ccc(O)cc1 [4-allylphenol] | 3 ml h^−1 (g liver)^−1 | 1.6 μmol h^−1 (g tissue)^−1 | 0.8 μmol h^−1 (g tissue)^−1 | 1600 ml h^−1 (g liver)^−1 | 0.5 µM | 0.2 μmol h^−1 (g tissue)^−1 | 400 ml h^−1 (g liver)^−1 | 0.5 µM | fourfold lower | 0.7 μmol h^−1 (g tissue)^−1 | 2 ml h^−1 (g liver)^−1 | 1.3 μl min^−1 (mg microsomal protein)^−1 | – | – | – | – | – | –
C=CCc1ccc(OC)cc1 [estragole, 4-allylanisol] | – | – | – | – | – | – | – | – | – | – | – | – | 53 % of the oral dose | ~10 % of the dose | 31–37 % of the dose | 47–53 % of the dose | 54–62 % of the dose | ~30%
